Common to all, as to test: inhibition of tumour cell growth, NCI panel, 48 h
Assay [1] deals with UO-31 renal.
Assay [2] deals with UACC-257 melanoma.
Assay [3] has as its system NCI-H460 lung.
Assay [4] concerns COLO 205 colon.
Assay [5] has as its system HOP-92 NSCLC.
Assay [6] concerns LOX IMVI melanoma.
The subject of assay [7] is SF-295 CNS.
Assay [8] concerns SR leukemia.
The subject of assay [9] is SF-539 CNS.

Where “and” joins values, the source holds several entries; their conditions need not be identical. Equal values may be shown once.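 These data come from cells grown in 96-well plates and exposed to compound for 48 hours at five concentrations. GI50 = concentration required for 50% inhibition of growth. The concentration for full growth arrest is given as TGI.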 Some results are limits rather than exact numbers.

`CC[Si](CC)(CC)OC[C@]1([C@@H]2COC(C)(C)O2)CC=CC(=O)O1`: the GI50 in [1] was 34.8 µM; in [2] it was 32.2 µM; in [3] it was 33.9 µM; in [4], 40.4 µM; in assay [5], 19.7 µM; in assay [6], 25 µM. Besides, the GI50 in assay [7] was 35.2 µM; in assay [8], 23 µM; in [9], 34.5 µM. The TGI is above 100 µM in [1]; above 100 µM in [2]; above 100 µM in [3]; above 100 µM in assay [4]; above 100 µM in [5]; 81 µM in [6]. Also, the TGI in assay [7] is above 100 µM; in [8] it was 95.1 µM; in assay [9], above 100 µM.
As for `C=C1C(=O)[C@@]23CC1C(O)[C@@H](OC(C)=O)[C@@H]2C1(C)C(OC(C)=O)C[C@@H](OC(C)=O)C(C)(C)[C@@H]1C[C@H]3OC(C)=O` (some centres undefined), the GI50 in [1] is > 10 µM and 6.65 µg/mL; in assay [2], 3.55 µM and 2.25 µg/mL; in assay [3], > 10 µM and 7.27 µg/mL; in assay [4] it was 1.69 µM and 1.72 µg/mL; in assay [5] it was 3.6 µM and 1.95 µg/mL; in assay [6], 1.82 µg/mL. Moreover, the GI50 is > 10 µM and 11.6 µg/mL in assay [7]; 1.7 µM and 0.255 µg/mL in assay [8]; 1.69 µM and 3.73 µg/mL in assay [9]. The TGI in assay [1] was > 10 µM and 16.3 µg/mL; in [2], > 10 µM and 5.06 µg/mL; in assay [3], > 10 µM and 19.4 µg/mL; in [4], 3.15 µM and 3.26 µg/mL; in [5] it was > 10 µM and 3.84 µg/mL; in assay [6] it was > 10 µM and 3.31 µg/mL. Besides, the TGI in assay [7] was > 10 µM and 25.6 µg/mL; in [8] it was 4.6 µM and 1.63 µg/mL; in assay [9] it was 3.7 µM and 11.6 µg/mL.
With `Cc1occc1C(=S)Nc1ccc(Cl)c(/C=N/OC(C)C)c1`, the TGI in [1] is 42.8 µM; in assay [2], 47.6 µM; in [3], above 57.5 µM; in assay [4], 37 µM; in assay [5] it was 37.4 µM; in assay [6] it was 31.1 µM. In addition, the values for the TGI in [7], in assay [8] and in assay [9] were 41.9 µM, above 59.9 µM and 32.9 µM, respectively.
`O=C(Nc1ccc(F)cc1F)c1cc(Br)ccc1O`: the GI50 in assay [1] was 1.43 µM; in assay [2], 1.86 µM; in [3], 2.9 µM; in [4], 3.75 µM; in assay [5], 0.593 µM; in assay [6], 2.91 µM. Moreover, the GI50 in assay [7] was 1.9 µM; in assay [8], 3.05 µM; in [9], 2.68 µM. For the same compound, the TGI in assay [1] was 6.01 µM; in assay [2], 7.24 µM; in assay [3], above 100 µM; in assay [4], 13.8 µM; in assay [5] it was 3.9 µM; in assay [6] it was 21.2 µM. Also, the TGI in assay [7] is 3.76 µM; in assay [8] it was above 100 µM; in [9], 10.9 µM.
`O=C(CC12CC3CC(CC(C3)C1)C2)NCCOCCOCCOCCNC(=O)c1cc2c(o1)C(=O)c1ccccc1C2=O`: the GI50 is 1.51 µM in assay [1]; 1.22 µM in [2]; 0.398 µM in assay [3]; 1.63 µM in assay [4]; 2.45 µM in assay [5]; 0.712 µM in assay [6]. For the same compound, the GI50 in assay [7] is 1.48 µM; in assay [8] it was 1.67 µM; in assay [9], 1.44 µM. The TGI turned out to be 3.13 µM in [1]; 2.52 µM in [2]; 1.44 µM in [3]; 3.33 µM in [4]; 7.3 µM in [5]; 2.4 µM in assay [6]. Also, the TGI in assay [7] was 2.85 µM; in assay [8] it was 8.76 µM; in assay [9], 2.78 µM.
As for `O=C1NC(=S)NC(=O)C1=Cc1cccc2cc3ccccc3cc12`, the TGI in [1] came out at 3.94 µM; in assay [2], 3.37 µM; in assay [3] it was 4.82 µM; in assay [4], 3.7 µM; in [5], 3.76 µM; in assay [6], 4.49 µM. Also, the TGI was 7.19 µM in [7], above 20 µM in [8] and 3.1 µM in [9].
Turning to `c1ccc2c(c1)-c1ccccc1C2N1CC2CCC(CC2)C1`, the TGI is 94.6 µM in assay [1]; 47.1 µM in assay [2]; 52.2 µM in assay [3]; 38.1 µM in [4]; 48.5 µM in assay [5]; 40.5 µM in assay [6]. Moreover, the TGI came to 38.1 µM in assay [7], 50.6 µM in [8] and 48.9 µM in [9].
In the case of `C=CCN1C=CC(=O)[C@H](O[Si](C)(C)C(C)(C)C)[C@@H]1/C=C/c1ccccc1`, the GI50 is 9.19 µM in assay [1]; 17.9 µM in assay [2]; 8.38 µM in assay [3]; 4.39 µM in assay [4]; 7.05 µM in assay [5]; 13.1 µM in assay [6]. Besides, the figures for the GI50 in [7], in assay [8] and in assay [9] were 9.9 µM, 5.21 µM and 16 µM, respectively. For the same compound, the TGI in assay [1] is 25.1 µM; in assay [2] it was 37.2 µM; in [3] it was 23.8 µM; in [4], 16.2 µM; in assay [5] it was 21.1 µM; in [6] it was 26.4 µM. Also, the TGI in [7] turned out to be 24.9 µM; in assay [8] it was 26.1 µM; in assay [9], 30.1 µM.
For the compound `Cc1cc2cc3c(C)cc(=O)oc3c(C)c2o1`, the TGI in assay [1], in [2], in assay [3], in assay [4], in assay [5] and in assay [6] was above 100 µM throughout. Further, the TGI in assay [7], in assay [8] and in assay [9] was above 100 µM in each case.
Regarding `COC(=O)c1c2c(c(C)[n+]([O-])c1C)C(=O)C=C(NCc1ccc(OC)cc1)C2=O`, the GI50 in [1] is 2.2 µM; in assay [2], 0.758 µM; in assay [3], 1.29 µM; in assay [4], 0.831 µM; in assay [5], 2.35 µM; in assay [6], 0.911 µM. For the same compound, the GI50 in assay [7] was 1.36 µM; in assay [8] it was 3.5 µM; in assay [9] it was 1.77 µM. In addition, the TGI in [1] is 6.83 µM; in assay [2], 2.08 µM; in assay [3], 4.69 µM; in [4], 2.45 µM; in [5], 6.12 µM; in assay [6], 3.77 µM. Moreover, the TGI in assay [7] was 3.83 µM; in [8], above 100 µM; in assay [9], 4.36 µM.

The record behind these values is PubChem BioAssay (NCI).
